Measured values published in patent publication US20090269753A1 (priority 2007, published 2009).

Legend:
fasl = fasl real-time RT-PCR in SRC-1-/- osteoclasts transfected with SRC-1 WT or P1272S; assay type: cell-based, mice; conditions: estradiol 10 nM or 40H-Tamoxifen 1 μM, 24 h
[1] = Hip and lumbar BMD by DXA at baseline and after 12 months of tamoxifen treatment; assay type: in vivo, women
From the text: Patients were enrolled after they had completed all primary surgery, radiation, and adjuvant chemotherapy.

[2] = SRC-1-/- osteoclasts with P1272S SRC-1
[3] = SRC-1-/- osteoclasts with transfected Flag-SRC-1 WT vs vector alone

## C[C@]12CC[C@@H]3c4ccc(O)cc4CC[C@H]3[C@@H]1CC[C@@H]2O [Estrogen, estradiol]
fasl; [2]
  Induction of fasl: failed to upregulate fasl
fasl; [3]
  Induction of fasl: detectable

## CC/C(=C(\c1ccccc1)c1ccc(OCCN(C)C)cc1)c1ccccc1 [Tamoxifen, tamoxifen]
fasl; [2]
  Induction of fasl: failed to upregulate fasl
fasl; [3]
  Induction of fasl: detectable
[1]; P1272S carriers (n=4), p=0.04 vs women without the SNP
  Lumbar BMD decrease: 6.4%
[1]; SNP carriers (n=4), p=0.08 vs WT group
  hip BMD decrease: 4.3%
[1]; WT group (n=102)
  hip BMD decrease: 0.6%
[1]; women without the SNP (n=107)
  Lumbar BMD decrease: 1.3%
